Data as given in patent US11787802B2, “Dihydrobenzimidazolones for medical treatment” (C4 Therapeutics, Inc., priority 2017, dated 2023).

target: hCereblon(M1-L442)_hDDB1(M1-H1140) (Homo sapiens (Human), UniProt Q96SW2); experiment: Fluorescence direct binding protocol (tryptophan fluorescence titration); details: fluorescence titration at 20° C., excited at 280 nm, recorded at 340 nm; protein 5.0 E−8 M; assay buffer 50 mM Hepes 7.4 200 mM NaCl; read-out: Fluorescence h-Cereblon_DDB1 Mean Kd_EQ
Sequence (Q96SW2 whole entry): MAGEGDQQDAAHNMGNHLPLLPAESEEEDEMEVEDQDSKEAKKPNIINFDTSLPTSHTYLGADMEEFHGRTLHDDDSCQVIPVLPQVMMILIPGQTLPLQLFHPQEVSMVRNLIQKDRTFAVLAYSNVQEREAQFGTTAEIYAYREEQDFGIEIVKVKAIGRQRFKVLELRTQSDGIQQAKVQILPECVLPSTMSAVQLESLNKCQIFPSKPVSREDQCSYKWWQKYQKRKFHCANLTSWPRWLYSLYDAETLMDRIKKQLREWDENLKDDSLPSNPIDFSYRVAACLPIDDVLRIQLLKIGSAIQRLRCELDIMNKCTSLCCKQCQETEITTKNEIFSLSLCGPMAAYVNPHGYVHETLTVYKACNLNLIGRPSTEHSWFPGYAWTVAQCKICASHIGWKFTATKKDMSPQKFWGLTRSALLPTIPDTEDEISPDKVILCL
Sequence (Q16531 whole entry partner): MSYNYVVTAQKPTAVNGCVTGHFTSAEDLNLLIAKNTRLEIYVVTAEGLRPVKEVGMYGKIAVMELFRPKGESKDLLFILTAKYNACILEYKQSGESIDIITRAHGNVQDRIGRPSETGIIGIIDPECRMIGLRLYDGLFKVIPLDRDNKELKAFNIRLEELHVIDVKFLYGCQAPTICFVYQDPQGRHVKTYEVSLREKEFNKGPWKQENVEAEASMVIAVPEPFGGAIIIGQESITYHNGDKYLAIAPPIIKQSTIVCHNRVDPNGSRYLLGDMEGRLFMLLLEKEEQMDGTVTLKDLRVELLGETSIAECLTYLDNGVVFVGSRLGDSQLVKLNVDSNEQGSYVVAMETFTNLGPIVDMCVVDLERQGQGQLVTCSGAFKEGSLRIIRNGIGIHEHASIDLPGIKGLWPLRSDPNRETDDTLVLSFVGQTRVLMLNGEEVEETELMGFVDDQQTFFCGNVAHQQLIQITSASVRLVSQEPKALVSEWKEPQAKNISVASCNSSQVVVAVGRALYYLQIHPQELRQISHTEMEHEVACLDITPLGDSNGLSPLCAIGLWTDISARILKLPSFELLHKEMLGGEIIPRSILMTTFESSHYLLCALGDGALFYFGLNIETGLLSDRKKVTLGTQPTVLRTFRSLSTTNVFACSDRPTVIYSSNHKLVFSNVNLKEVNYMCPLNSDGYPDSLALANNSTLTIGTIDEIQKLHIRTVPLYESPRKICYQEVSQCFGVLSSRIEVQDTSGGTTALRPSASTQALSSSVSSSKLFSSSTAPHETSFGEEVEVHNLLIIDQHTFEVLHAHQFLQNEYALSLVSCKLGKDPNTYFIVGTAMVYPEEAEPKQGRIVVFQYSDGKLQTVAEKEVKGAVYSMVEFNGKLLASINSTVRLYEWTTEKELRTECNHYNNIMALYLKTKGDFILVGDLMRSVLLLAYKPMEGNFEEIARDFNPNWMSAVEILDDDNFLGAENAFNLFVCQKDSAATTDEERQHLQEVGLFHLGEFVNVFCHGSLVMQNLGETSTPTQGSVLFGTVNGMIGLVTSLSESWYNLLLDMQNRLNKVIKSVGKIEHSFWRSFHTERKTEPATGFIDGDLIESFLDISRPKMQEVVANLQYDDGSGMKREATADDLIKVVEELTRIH
Procedure: Fluorescence Direct Binding Protocol
Determination of the affinities of compounds to protein containing one or more tryptophan is measurable by monitoring the fluorescence emission in direct mode. The measurements depending on the protein available amounts are performed either manually in a cuvette on ISS-PC1 photon counting spectrofluorometer or automatically in well plates on a fluorescence plate reader device. Fluorescence titrations are performed at 20° C. in the chosen binding assay buffer by using a defined constant protein concentration against ligand concentration variations. Small aliquots of known ligand concentration solubilized in DMSO were added and the fluorescence, excited at 280 nm, was recorded at 340 nm. The fluorescence intensity was corrected for protein dilution and for the filter effect (Birdsall et al.^69). The corrected fluorescence intensity was plotted against the ligand concentration and fitted using a four-parameter sigmoidal function, from which the equilibrium dissociation constant Kd was computed using the law of mass action assuming a 1:1 protein-ligand complex (Eftink, 1997^70).
Process • 1) Optimization of measurement parameters to minimize protein consumption and to minimize the dilution effect and the DMSO content • 2) Titration measurements of the protein against ligand by at least 12 titration steps to obtain a good s-curve fit • 3) Repeat the same titration measurements with the ligand alone to enable correction • 4) Check the stability of the protein once by titration against DMSO alone • 5) Determination of the molar extinction coefficients of the ligand at 280 and 340 nm with help of an UV-spectrophotometer • 6) Use Excel template for the correction of the measured raw data • 7) Use GraphPad Prism software for the quadratic binding fit and the KD evaluation.

| SMILES | Kd [nM] |
| --- | --- |
| CC(=O)Nc1ccc2c(c1)CCN2c1ccc2[nH]c(=O)[nH]c2c1 [Example 141, N-(1-(2-Oxo-2,3-dihydro-1H-benzo[d]imidazol-5-yl)indolin-5-yl)acetamide] | 53 |
| CC(=O)N1[C@@H]2CC[C@H]1CN(c1ccc3[nH]c(=O)[nH]c3c1)C2 [Example 63, 5-[rac-(1S,5R)-8-Acetyl-3,8-diazabicyclo[3.2.1]octan-3-yl]-1,3-dihydrobenzimidazol-2-one] | 79 |
| Nc1ccccc1Nc1ccc2[nH]c(=O)[nH]c2c1 [Example 6, 5-((2-Aminophenyl)amino)-1H-benzo[d]imidazol-2(3H)-one] | 54 |
| CNC(=O)c1ccc2c(c1)nc(C(F)(F)F)n2-c1ccc2[nH]c(=O)[nH]c2c1 [Example 13, N-Methyl-2′-oxo-2-(trifluoromethyl)-2′,3′-dihydro-1′H-[1,5′-bibenzo[d]imidazole]-5-carboxamide] | 7 |
| CCc1nc2cc(C(=O)NC)ccc2n1-c1ccc2[nH]c(=O)[nH]c2c1 [Example 4, 2-Ethyl-N-methyl-2′-oxo-2′,3′-dihydro-1′H-[1,5′-bibenzo[d]imidazole]-5-carboxamide] | 36 |
| CNC(=O)c1ccc2c(c1)nc(C)n2-c1ccc2[nH]c(=O)[nH]c2c1 [Example 5, N,2-Dimethyl-2′-oxo-2′,3′-dihydro-1′H-[1,5′-bibenzo[d]imidazole]-5-carboxamide] | 180 |
| CC(C)c1nc2cc(OCc3ccccc3)ccc2n1-c1ccc2[nH]c(=O)[nH]c2c1 [Example 120, 5-(Benzyloxy)-2-isopropyl-1′,3′-dihydro-2′H-[1,5′-bibenzo[d]imidazol]-2′-one] | 194 |
| COc1ccc(Cc2ccc3[nH]c(=O)[nH]c3c2)cc1 [Example 39, 5-[(4-Methoxyphenyl)methyl]-1,3-dihydrobenzimidazol-2-one] | 6 |
| COc1cccc(-c2ncccc2C(=O)Nc2ccc3[nH]c(=O)[nH]c3c2)c1 [Example 138, 2-(3-Methoxyphenyl)-N-(2-oxo-2,3-dihydro-1H-benzo[d]imidazol-5-yl)nicotinamide] | 109 |
| Cn1ccc(-c2cccc(NC(=O)c3ccc4[nH]c(=O)[nH]c4c3)c2)n1 [Example 130, N-(3-(1-Methyl-1H-pyrazol-3-yl)phenyl)-2-oxo-2,3-dihydro-1H-benzo[d]imidazole-5-carboxamide] | 781 |
| O=c1[nH]c2ccc(N3CCN(c4ccccn4)CC3)nc2[nH]1 [Example 40, 5-[4-(2-Pyridyl)piperazin-1-yl]-1,3-dihydroimidazo[4,5-b]pyridin-2-one] | 7 |
| CC(=O)N1CCc2c(C(=O)Nc3ccc4[nH]c(=O)[nH]c4c3)cccc21 [Example 145, 1-Acetyl-N-(2-oxo-2,3-dihydro-1H-benzo[d]imidazol-5-yl)indoline-4-carboxamide] | 84 |
| O=C(c1cnc2[nH]c(=O)[nH]c2c1)N1CCCc2ccccc21 [Example 95, 6-(1,2,3,4-Tetrahydroquinoline-1-carbonyl)-1,3-dihydro-2H-imidazo[4,5-b]pyridin-2-one] | 20 |
| CC(=O)NCCC(=O)Nc1ccc2[nH]c(=O)[nH]c2c1 [Example 90, 3-Acetamido-N-(2-oxo-2,3-dihydro-1H-benzo[d]imidazol-5-yl)propanamide] | 19 |
| O=C(Nc1ccccc1)c1cnc2[nH]c(=O)[nH]c2c1 [Example 67, 2-Oxo-N-phenyl-2,3-dihydro-1H-imidazo[4,5-b]pyridine-6-carboxamide] | 5 |
| Cn1c(=O)[nH]c2nc(-c3ccccc3)ccc21 [Example 44, 1-Methyl-5-phenyl-3H-imidazo[4,5-b]pyridin-2-one] | < 1 |
| O=C(NC1CCNCC1)c1ccc2[nH]c(=O)[nH]c2c1 [Example 51, 2-Oxo-N-(4-piperidyl)-1,3-dihydrobenzimidazole-5-carboxamide] | 138 |
| O=c1[nH]c2cnc(-c3ccc(F)cc3)cc2[nH]1 [Example 36, 6-(4-Fluoro-phenyl)-1,3-dihydro-imidazo[4,5-c]pyridin-2-one] | 77 |
| CNS(=O)(=O)c1ccc(CC(=O)Nc2ccc3[nH]c(=O)[nH]c3c2)cc1 [Example 106, 2-(4-(N-Methylsulfamoyl)phenyl)-N-(2-oxo-2,3-dihydro-1H-benzo[d]imidazol-5-yl)acetamide] | 1 |
| CNC(=O)c1nc2ccccc2n1-c1ccc2[nH]c(=O)[nH]c2c1 [Example 102, N-Methyl-1-(2-oxo-1,3-dihydrobenzimidazol-5-yl)benzimidazole-2-carboxamide] | 130 |

| SMILES | Kd [nM] |
| --- | --- |
| O=c1[nH]c2ccc(S(=O)(=O)N3CCc4ccccc43)cc2[nH]1 [Example 116, 5-(Indolin-1-ylsulfonyl)-1,3-dihydro-2H-benzo[d]imidazol-2-one] | 48 |
| O=C(c1nc2ccccc2n1-c1ccc2[nH]c(=O)[nH]c2c1)N1CCCCC1 [Example 103, 5-[2-(Piperidine-1-carbonyl)benzimidazol-1-yl]-1,3-dihydrobenzimidazol-2-one] | 35 |
| O=C(Nc1ccc2[nH]c(=O)[nH]c2c1)c1ccccc1Cc1ccccc1 [Example 123, 2-Benzyl-N-(2-oxo-2,3-dihydro-1H-benzo[d]imidazol-5-yl)benzamide] | 22 |
| CNC(=O)c1ccc2c(c1)nc(Cc1cccc(OC)c1)n2-c1ccc2[nH]c(=O)[nH]c2c1 [Example 28, 2-(3-Methoxybenzyl)-N-methyl-2′-oxo-2′,3′-dihydro-1′H-[1,5′-bibenzo[d]imidazole]-5-carboxamide] | 12 |
| COC(=O)c1ccccc1C(=O)Nc1ccc2[nH]c(=O)[nH]c2c1 [Example 151, Methyl 2-((2-oxo-2,3-dihydro-1H-benzo[d]imidazol-5-yl)carbamoyl)benzoate] | 52 |
| O=c1[nH]c2ccc(-c3cccc4ncccc34)cc2[nH]1 [Example 42, 5-Quinolin-5-yl-1,3-dihydro-benzoimidazol-2-one] | 336 |
| O=C(Nc1ccc2[nH]c(=O)[nH]c2c1)N1CCc2ccccc21 [Example 105, N-(2-Oxo-2,3-dihydro-1H-benzo[d]imidazol-5-yl)indoline-1-carboxamide] | 4 |
| O=c1[nH]c2cc(-c3ccccc3OCc3ccccc3)cnc2[nH]1 [Example 104, 6-(2-(Benzyloxy)phenyl)-1,3-dihydro-2H-imidazo[4,5-b]pyridin-2-one] | 14 |
| O=c1[nH]c2ccc(-c3cc(F)ccc3F)cc2[nH]1 [Example 37, 5-(2,5-Difluoro-phenyl)-1,3-dihydro-benzoimidazol-2-one] | 10 |
| O=C(Nc1ccc2[nH]c(=O)[nH]c2c1)c1coc2ccccc12 [Example 68, N-(2-Oxo-2,3-dihydro-1H-benzo[d]imidazol-5-yl)benzofuran-3-carboxamide] | 9 |
| CC(=O)N1CCC(N(C)C(=O)c2ccc3[nH]c(=O)[nH]c3c2)CC1 [Example 86, N-(1-Acetylpiperidin-4-yl)-N-methyl-2-oxo-2,3-dihydro-1H-benzo[d]imidazole-5-carboxamide] | 4 |
| CN(C)C(=O)c1ccc2c(c1)nc(-c1cc(-c3cncn3C)nc3ccccc13)n2-c1ccc2[nH]c(=O)[nH]c2c1 [Example 18, N,N-Dimethyl-2-(2-(1-methyl-1H-imidazol-5-yl)quinolin-4-yl)-2′-oxo-2′,3′-dihydro-1′H-[1,5′-bibenzo[d]imidazole]-5-carboxamide] | 16 |
| O=C(Nc1ccc2[nH]c(=O)[nH]c2c1)c1ccccc1 [Example 73, N-(2-Oxo-2,3-dihydro-1H-benzo[d]imidazol-5-yl)benzamide] | 11 |
| CNC(=O)c1cccc2c1CCCN2C(=O)Nc1ccc2[nH]c(=O)[nH]c2c1 [Example 109, N5-Methyl-N1-(2-oxo-2,3-dihydro-1H-benzo[d]imidazol-5-yl)-3,4-dihydroquinoline-1,5(2H)-dicarboxamide] | 39 |
| CCc1nc2cc(C(=O)NCCCCCNC(=O)C[C@@H]3N=C(c4ccc(Cl)cc4)c4c(sc(C)c4C)-n4c(C)nnc43)ccc2n1-c1ccc2[nH]c(=O)[nH]c2c1 [Example A, N-(5-(2-((6S)-4-(4-chlorophenyl)-2,3,9-trimethyl-6H-thieno[3,2-f][1,2,4]triazolo[4,3-a][1,4]diazepin-6-yl)acetamido)pentyl)-2-ethyl-2′-oxo-2′,3′-dihydro-1′H-[1,5′-bibenzo[d]imidazole]-5-carboxamide] | 55 |
| COc1ccc2c(c1)nc(C(C)C)n2-c1ccc2[nH]c(=O)[nH]c2c1 [Example 124, 2-Isopropyl-5-methoxy-1′,3′-dihydro-2′H-[1,5′-bibenzo[d]imidazol]-2′-one] | 13 |
| CC(=O)N1CCC(NC(=O)c2cnc3[nH]c(=O)[nH]c3c2)CC1 [Example 56, N-(1-Acetylpiperidin-4-yl)-2-oxo-2,3-dihydro-1H-imidazo[4,5-b]pyridine-6-carboxamide] | 2 |
| O=c1[nH]c2ccc(-c3cccnc3)cc2[nH]1 [Example 19, 5-(Pyridin-3-yl)-1H-benzo[d]imidazol-2(3H)-one] | 7 |
| CNC(=O)c1ccc2c(c1)nc(-c1cc[nH]c1)n2-c1ccc2[nH]c(=O)[nH]c2c1 [Example 66, N-Methyl-2′-oxo-2-(1H-pyrrol-3-yl)-2′,3′-dihydro-1′H-[1,5′-bibenzo[d]imidazole]-5-carboxamide] | 51 |
